Holding throughout (assay): relative viability (nuclei count vs DMSO), 5 days (fraction); higher = more cells survive
Compound in the assay “Tosedostat + Olaparib”: CC(C)C[C@@H](C(=O)N[C@H](C(=O)OC1CCCC1)c1ccccc1)[C@H](O)C(=O)NO [Tosedostat] + O=C(c1cc(Cc2n[nH]c(=O)c3ccccc23)ccc1F)N1CCN(C(=O)C2CC2)CC1 [Olaparib] (partner 8 µM)
In a few lines: (§1)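 Dosing by pin tool came one day after lung cancer cell lines were seeded in 1536-well plates, using either one drug or a fixed anchor-drug dose plus five library-drug doses (not always all listed) in √10 steps. After 5 days, nuclei were counted on 4× images. Relative viability is treated-well nuclei count divided by vehicle-well nuclei count, and values are medians of duplicate plates.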

Compound in assay [1]: CC1=NN=C(O1)C2=NN=C(C=C2)N3CCC(CC3)OC4=C(C=CC(=C4)F)Cl + COc1cccc2cc(-c3nc([C@H]4CC[C@H](C(=O)O)CC4)n4ncnc(N)c34)[nH]c12 [OSI-027] (partner 0.5 µM)
In a few lines:
as §1

Compound in assay [2]: CC1=NN=C(O1)C2=NN=C(C=C2)N3CCC(CC3)OC4=C(C=CC(=C4)F)Cl + CC(=O)Nc1cccc(-n2c(=O)n(C3CC3)c(=O)c3c(Nc4ccc(I)cc4F)n(C)c(=O)c(C)c32)c1 [Trametinib] (partner 0.02 µM)
The method in brief: as §1

Compound in assay [3]: CC1=NN=C(O1)C2=NN=C(C=C2)N3CCC(CC3)OC4=C(C=CC(=C4)F)Cl + C[C@@H](Oc1cc(-c2cnn(C3CCNCC3)c2)cnc1N)c1c(Cl)ccc(F)c1Cl [Crizotinib] (partner 1 µM)
The method in brief: as §1

NCI-H2342: the relative viability with Tosedostat + Olaparib (first compound 0.02 µM) came out at 0.401; with Tosedostat + Olaparib (first compound 0.06325 µM), 0.392; with Tosedostat + Olaparib (first compound 0.2 µM), 0.444; in the assay with Tosedostat + Olaparib (first compound 0.6325 µM) it was 0.295; in the assay with Tosedostat + Olaparib (first compound 2 µM) it was 0.373; in assay [1] (first compound 0.253 µM), 0.57. The relative viability worked out at 0.531 in assay [1] (first compound 0.8 µM); 0.515 in assay [1] (first compound 2.53 µM); 0.522 in assay [1] (first compound 8 µM); 0.581 in assay [2] (first compound 0.253 µM); 0.554 in assay [2] (first compound 0.8 µM); 0.55 in assay [2] (first compound 2.53 µM). Moreover, in assay [2] (first compound 8 µM), the relative viability worked out at 0.486.
In the case of SK-MES-1, the relative viability in assay [3] (first compound 0.253 µM) turned out to be 0.773; in assay [3] (first compound 0.8 µM), 0.807; in assay [3] (first compound 2.53 µM), 0.81; in assay [3] (first compound 8 µM), 0.724; in the assay with Tosedostat + Olaparib (first compound 0.02 µM), 0.719; in the assay with Tosedostat + Olaparib (first compound 0.06325 µM), 0.672. Besides, the relative viability with Tosedostat + Olaparib (first compound 0.2 µM) turned out to be 0.698; in the assay with Tosedostat + Olaparib (first compound 0.6325 µM), 0.601; with Tosedostat + Olaparib (first compound 2 µM), 0.404; in assay [1] (first compound 0.253 µM), 0.558; in assay [1] (first compound 0.8 µM), 0.583; in assay [1] (first compound 2.53 µM), 0.601. For the same cell line, the relative viability in assay [1] (first compound 8 µM) was determined as 0.487; in assay [2] (first compound 0.253 µM) it was 0.486; in assay [2] (first compound 0.8 µM) it was 0.573; in assay [2] (first compound 2.53 µM), 0.507; in assay [2] (first compound 8 µM), 0.501.
For NCI-H1355, the relative viability in assay [3] (first compound 2.53 µM) was 0.985; in assay [3] (first compound 8 µM), 0.959; in the assay with Tosedostat + Olaparib (first compound 0.02 µM), 0.731; with Tosedostat + Olaparib (first compound 0.06325 µM), 0.662; in the assay with Tosedostat + Olaparib (first compound 0.2 µM), 0.649; with Tosedostat + Olaparib (first compound 0.6325 µM) it was 0.587. In addition, the relative viability was found to be 0.607 with Tosedostat + Olaparib (first compound 2 µM); 0.343 in assay [1] (first compound 0.253 µM); 0.38 in assay [1] (first compound 0.8 µM); 0.386 in assay [1] (first compound 2.53 µM); 0.331 in assay [1] (first compound 8 µM); 0.317 in assay [2] (first compound 0.253 µM). Also, the relative viability came to 0.379 in assay [2] (first compound 0.8 µM), 0.374 in assay [2] (first compound 2.53 µM) and 0.371 in assay [2] (first compound 8 µM).
With HCC-366, the relative viability in assay [3] (first compound 0.253 µM) amounted to 0.289; in assay [3] (first compound 0.8 µM), 0.284; in assay [3] (first compound 2.53 µM) it was 0.256; in assay [3] (first compound 8 µM), 0.272; in the assay with Tosedostat + Olaparib (first compound 0.02 µM), 0.361; in the assay with Tosedostat + Olaparib (first compound 0.06325 µM), 0.334. Besides, the relative viability with Tosedostat + Olaparib (first compound 0.2 µM) is 0.385; with Tosedostat + Olaparib (first compound 0.6325 µM), 0.32; in the assay with Tosedostat + Olaparib (first compound 2 µM), 0.33; in assay [1] (first compound 0.253 µM), 0.32; in assay [1] (first compound 0.8 µM), 0.399; in assay [1] (first compound 2.53 µM) it was 0.393. Moreover, the relative viability in assay [1] (first compound 8 µM) came to 0.407; in assay [2] (first compound 0.253 µM) it was 0.16; in assay [2] (first compound 0.8 µM), 0.23; in assay [2] (first compound 2.53 µM), 0.268; in assay [2] (first compound 8 µM), 0.193.
For 201T, the relative viability is 0.456 in assay [3] (first compound 0.253 µM); 0.504 in assay [3] (first compound 0.8 µM); 0.499 in assay [3] (first compound 2.53 µM); 0.484 in assay [3] (first compound 8 µM); 0.824 with Tosedostat + Olaparib (first compound 0.02 µM); 0.913 with Tosedostat + Olaparib (first compound 0.06325 µM). Moreover, the relative viability with Tosedostat + Olaparib (first compound 0.2 µM) amounted to 0.874; with Tosedostat + Olaparib (first compound 0.6325 µM), 0.896; with Tosedostat + Olaparib (first compound 2 µM), 0.862; in assay [1] (first compound 0.253 µM) it was 0.383; in assay [1] (first compound 0.8 µM), 0.536; in assay [1] (first compound 2.53 µM) it was 0.583. The relative viability in assay [1] (first compound 8 µM) was determined as 0.504; in assay [2] (first compound 0.253 µM) it was 0.414; in assay [2] (first compound 0.8 µM), 0.425; in assay [2] (first compound 2.53 µM) it was 0.405; in assay [2] (first compound 8 µM), 0.384.
Consider HCC-827, for which the relative viability in assay [3] (first compound 0.253 µM) came out at 0.331; in assay [3] (first compound 0.8 µM) it was 0.224; in assay [3] (first compound 2.53 µM) it was 0.326; in assay [3] (first compound 8 µM), 0.308; in the assay with Tosedostat + Olaparib (first compound 0.02 µM), 0.543; with Tosedostat + Olaparib (first compound 0.06325 µM) it was 0.526. The relative viability in the assay with Tosedostat + Olaparib (first compound 0.2 µM) was determined as 0.602; with Tosedostat + Olaparib (first compound 0.6325 µM) it was 0.317; with Tosedostat + Olaparib (first compound 2 µM) it was 0.506; in assay [1] (first compound 0.253 µM), 0.602; in assay [1] (first compound 0.8 µM), 0.362; in assay [1] (first compound 2.53 µM) it was 0.653. Moreover, the relative viability in assay [1] (first compound 8 µM) is 0.591; in assay [2] (first compound 0.253 µM) it was 0.42; in assay [2] (first compound 0.8 µM), 0.343; in assay [2] (first compound 2.53 µM) it was 0.431; in assay [2] (first compound 8 µM), 0.399.
Turning to PC-14, the relative viability in assay [3] (first compound 0.253 µM) is 0.747; in assay [3] (first compound 0.8 µM), 0.636; in assay [3] (first compound 2.53 µM), 0.713; in assay [3] (first compound 8 µM), 0.739; in the assay with Tosedostat + Olaparib (first compound 0.02 µM) it was 0.264; with Tosedostat + Olaparib (first compound 0.06325 µM), 0.256. Also, the relative viability is 0.193 in the assay with Tosedostat + Olaparib (first compound 0.2 µM); 0.152 with Tosedostat + Olaparib (first compound 0.6325 µM); 0.122 with Tosedostat + Olaparib (first compound 2 µM); 0.818 in assay [1] (first compound 0.253 µM); 0.572 in assay [1] (first compound 0.8 µM); 0.721 in assay [1] (first compound 2.53 µM). The relative viability in assay [1] (first compound 8 µM) was determined as 0.643; in assay [2] (first compound 0.253 µM), 0.732; in assay [2] (first compound 0.8 µM), 0.658; in assay [2] (first compound 2.53 µM), 0.582; in assay [2] (first compound 8 µM) it was 0.428.
For NCI-H2228, the relative viability in assay [3] (first compound 0.253 µM) stood at 0.357; in assay [3] (first compound 0.8 µM), 0.408; in assay [3] (first compound 2.53 µM), 0.533; in assay [3] (first compound 8 µM), 0.42; in the assay with Tosedostat + Olaparib (first compound 0.02 µM), 0.735; with Tosedostat + Olaparib (first compound 0.06325 µM), 0.56. The relative viability came to 0.518 with Tosedostat + Olaparib (first compound 0.2 µM); 0.598 in the assay with Tosedostat + Olaparib (first compound 0.6325 µM); 0.272 with Tosedostat + Olaparib (first compound 2 µM); 0.41 in assay [1] (first compound 0.253 µM); 0.448 in assay [1] (first compound 0.8 µM); 0.302 in assay [1] (first compound 2.53 µM). Moreover, the relative viability in assay [1] (first compound 8 µM) was 0.468; in assay [2] (first compound 0.253 µM), 0.373; in assay [2] (first compound 0.8 µM) it was 0.41; in assay [2] (first compound 2.53 µM), 0.548; in assay [2] (first compound 8 µM) it was 0.612.
NCI-H727: the relative viability in assay [3] (first compound 0.253 µM) came to 0.725; in assay [3] (first compound 0.8 µM), 0.901; in assay [3] (first compound 2.53 µM) it was 0.672; in assay [3] (first compound 8 µM), 0.683; with Tosedostat + Olaparib (first compound 0.02 µM), 0.677; with Tosedostat + Olaparib (first compound 0.06325 µM), 0.492. The relative viability stood at 0.679 with Tosedostat + Olaparib (first compound 0.2 µM); 0.51 with Tosedostat + Olaparib (first compound 0.6325 µM); 0.451 with Tosedostat + Olaparib (first compound 2 µM); 0.704 in assay [1] (first compound 0.253 µM); 0.494 in assay [1] (first compound 0.8 µM); 0.685 in assay [1] (first compound 2.53 µM). In addition, the relative viability in assay [1] (first compound 8 µM) stood at 0.741; in assay [2] (first compound 0.253 µM), 0.467; in assay [2] (first compound 0.8 µM), 0.402; in assay [2] (first compound 2.53 µM) it was 0.385; in assay [2] (first compound 8 µM), 0.341.

Source of the values: the supplement of paper PMC10307832.
